Laboratory results as given in publication PMC12192500, “Selective Dual Inhibition of TNKS1 and CDK8 by TCS9725 Attenuates STAT1/β-Catenin/TGFβ1 Signaling in Renal Cancer” (Current Issues in Molecular Biology, 2025).

What was measured:
[1] = target: CDK8 (Cyclin-dependent kinase 8) (Homo sapiens, UniProt P49336); experiment: luminescence-based kinase assay; assay type: biochemical
[2] = target: T1, TNKS1 (Tankyrase 1, PARP5A) (Homo sapiens, UniProt O95271); experiment: TNKS1 colorimetric PARP activity assay kit (BPS #[…]), histone-coated plate; assay type: biochemical
T1 construct: gene TNKS
T1 sequence (O95271 whole entry): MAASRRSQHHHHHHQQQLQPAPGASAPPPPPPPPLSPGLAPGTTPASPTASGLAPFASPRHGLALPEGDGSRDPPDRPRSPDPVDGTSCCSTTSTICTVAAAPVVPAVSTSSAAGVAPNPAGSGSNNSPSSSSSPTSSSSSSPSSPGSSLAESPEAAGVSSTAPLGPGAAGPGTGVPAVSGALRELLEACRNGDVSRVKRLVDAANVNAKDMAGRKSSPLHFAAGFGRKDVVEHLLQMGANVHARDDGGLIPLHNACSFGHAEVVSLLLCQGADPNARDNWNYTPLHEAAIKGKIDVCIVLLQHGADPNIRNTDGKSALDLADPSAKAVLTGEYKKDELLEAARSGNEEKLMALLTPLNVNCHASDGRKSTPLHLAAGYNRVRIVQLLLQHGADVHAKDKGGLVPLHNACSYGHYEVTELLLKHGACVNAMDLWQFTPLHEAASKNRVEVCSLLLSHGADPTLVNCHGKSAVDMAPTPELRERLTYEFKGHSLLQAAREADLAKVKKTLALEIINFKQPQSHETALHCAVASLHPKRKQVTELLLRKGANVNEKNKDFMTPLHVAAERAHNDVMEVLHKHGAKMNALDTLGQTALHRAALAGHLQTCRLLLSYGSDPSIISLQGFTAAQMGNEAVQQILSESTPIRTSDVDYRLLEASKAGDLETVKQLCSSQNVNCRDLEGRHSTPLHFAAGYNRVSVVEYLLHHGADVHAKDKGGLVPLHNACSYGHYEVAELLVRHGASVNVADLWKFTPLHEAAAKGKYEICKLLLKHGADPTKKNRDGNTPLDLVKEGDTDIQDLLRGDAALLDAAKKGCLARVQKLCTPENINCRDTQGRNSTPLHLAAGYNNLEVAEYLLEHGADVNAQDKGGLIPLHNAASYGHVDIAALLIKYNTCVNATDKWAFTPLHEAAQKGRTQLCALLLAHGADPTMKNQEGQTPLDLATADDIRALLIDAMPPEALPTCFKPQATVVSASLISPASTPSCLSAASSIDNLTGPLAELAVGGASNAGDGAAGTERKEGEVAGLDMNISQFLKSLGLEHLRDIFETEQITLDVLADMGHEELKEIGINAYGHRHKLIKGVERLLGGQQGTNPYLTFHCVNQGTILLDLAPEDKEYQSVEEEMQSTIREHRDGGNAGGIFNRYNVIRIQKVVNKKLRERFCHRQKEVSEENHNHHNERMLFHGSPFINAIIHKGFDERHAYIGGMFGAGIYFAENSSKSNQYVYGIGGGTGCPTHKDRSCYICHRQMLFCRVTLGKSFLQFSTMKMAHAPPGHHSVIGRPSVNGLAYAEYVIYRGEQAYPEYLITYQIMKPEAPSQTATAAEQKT

Chain of CDK8 (Cyclin-dependent kinase 8) (P49336 whole entry): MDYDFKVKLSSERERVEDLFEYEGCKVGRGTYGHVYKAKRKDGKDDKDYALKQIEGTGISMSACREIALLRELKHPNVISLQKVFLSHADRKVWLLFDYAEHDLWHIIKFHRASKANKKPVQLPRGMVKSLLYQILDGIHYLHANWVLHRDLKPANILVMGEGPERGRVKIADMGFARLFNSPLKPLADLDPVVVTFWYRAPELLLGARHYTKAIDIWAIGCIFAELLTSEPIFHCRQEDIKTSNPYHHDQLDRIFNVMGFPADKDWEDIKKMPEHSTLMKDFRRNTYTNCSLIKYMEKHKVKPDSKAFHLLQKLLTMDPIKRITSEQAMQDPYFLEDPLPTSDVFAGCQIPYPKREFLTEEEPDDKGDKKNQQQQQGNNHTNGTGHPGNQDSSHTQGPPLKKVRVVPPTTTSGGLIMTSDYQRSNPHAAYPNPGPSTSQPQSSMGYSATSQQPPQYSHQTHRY

O=c1cccc(-c2ccc(Cl)cc2)o1 [TCS9725, 6-(4-chlorophenyl)-2H-pyran-2-one]
IC50 [1]: 404 nM
IC50 [2]: 243 nM
